Assay: mn = molality of the nth substance listed, in mol/kg
Details: Liquid; for thermal conductivity: Coaxial cylinder method; for viscosity: Capillary tube (Ostwald / Ubbelohde) method

O=S(=O)([O-])[O-].[K+].[K+] [potassium sulfate] + O
Details | thermal conductivity [W/m/K] | viscosity [mPa·s]
298 K, 100 kPa, m1 = 0.499 | 0.602 | –
298 K, 10000 kPa, m1 = 0.499 | 0.607 | –
298 K, 30000 kPa, m1 = 0.499 | 0.616 | –
298.15 K, 0.1 kPa, m1 = 0.0658 | – | 0.9039
298.15 K, 0.1 kPa, m1 = 0.2055 | – | 0.931
298.15 K, 0.1 kPa, m1 = 0.305 | – | 0.9616
298.15 K, 0.1 kPa, m1 = 0.407 | – | 0.9825
298.15 K, 10 kPa, m1 = 0.0658 | – | 0.9023
298.15 K, 10 kPa, m1 = 0.2055 | – | 0.9297
298.15 K, 10 kPa, m1 = 0.305 | – | 0.9618
298.15 K, 10 kPa, m1 = 0.407 | – | 0.9823
298.15 K, 20 kPa, m1 = 0.0658 | – | 0.904
298.15 K, 20 kPa, m1 = 0.2055 | – | 0.931
298.15 K, 20 kPa, m1 = 0.305 | – | 0.9615
298.15 K, 20 kPa, m1 = 0.407 | – | 0.9826
298.15 K, 30 kPa, m1 = 0.0658 | – | 0.9053
298.15 K, 30 kPa, m1 = 0.2055 | – | 0.9319
298.15 K, 30 kPa, m1 = 0.305 | – | 0.964
298.15 K, 30 kPa, m1 = 0.407 | – | 0.983
298.4 K, 100 kPa, m1 = 0.239 | 0.605 | –
298.4 K, 10000 kPa, m1 = 0.239 | 0.61 | –
298.4 K, 30000 kPa, m1 = 0.239 | 0.62 | –
311.65 K, 0.1 kPa, m1 = 0.2055 | – | 0.7107
311.65 K, 10 kPa, m1 = 0.2055 | – | 0.7122
311.65 K, 20 kPa, m1 = 0.2055 | – | 0.7133
311.65 K, 30 kPa, m1 = 0.2055 | – | 0.7151
312.25 K, 0.1 kPa, m1 = 0.407 | – | 0.7386
312.25 K, 10 kPa, m1 = 0.407 | – | 0.7414
312.25 K, 20 kPa, m1 = 0.407 | – | 0.7439
312.25 K, 30 kPa, m1 = 0.407 | – | 0.7452
312.55 K, 0.1 kPa, m1 = 0.305 | – | 0.7172
312.55 K, 10 kPa, m1 = 0.305 | – | 0.7194
312.55 K, 20 kPa, m1 = 0.305 | – | 0.7207
312.55 K, 30 kPa, m1 = 0.305 | – | 0.7227
313 K, 100 kPa, m1 = 0.239 | 0.626 | –
313 K, 10000 kPa, m1 = 0.239 | 0.631 | –
313 K, 30000 kPa, m1 = 0.239 | 0.641 | –
313.1 K, 100 kPa, m1 = 0.782 | 0.618 | –
313.1 K, 10000 kPa, m1 = 0.782 | 0.623 | –
313.1 K, 30000 kPa, m1 = 0.782 | 0.632 | –
313.55 K, 0.1 kPa, m1 = 0.0658 | – | 0.6609
313.55 K, 10 kPa, m1 = 0.0658 | – | 0.6613
313.55 K, 20 kPa, m1 = 0.0658 | – | 0.665
313.55 K, 30 kPa, m1 = 0.0658 | – | 0.667
313.6 K, 100 kPa, m1 = 0.499 | 0.622 | –
313.6 K, 10000 kPa, m1 = 0.499 | 0.627 | –
313.6 K, 30000 kPa, m1 = 0.499 | 0.637 | –
323.15 K, 0.1 kPa, m1 = 0.2055 | – | 0.5819
323.15 K, 0.1 kPa, m1 = 0.305 | – | 0.5972
323.15 K, 10 kPa, m1 = 0.2055 | – | 0.5837
323.15 K, 10 kPa, m1 = 0.305 | – | 0.5991
323.15 K, 20 kPa, m1 = 0.2055 | – | 0.5858
323.15 K, 20 kPa, m1 = 0.305 | – | 0.6019
323.15 K, 30 kPa, m1 = 0.2055 | – | 0.5885
323.15 K, 30 kPa, m1 = 0.305 | – | 0.6045
323.25 K, 0.1 kPa, m1 = 0.0658 | – | 0.5568
323.25 K, 10 kPa, m1 = 0.0658 | – | 0.5586
323.25 K, 20 kPa, m1 = 0.0658 | – | 0.5601
323.25 K, 30 kPa, m1 = 0.0658 | – | 0.5617
323.35 K, 0.1 kPa, m1 = 0.407 | – | 0.6109
323.35 K, 10 kPa, m1 = 0.407 | – | 0.613
323.35 K, 20 kPa, m1 = 0.407 | – | 0.6159
323.35 K, 30 kPa, m1 = 0.407 | – | 0.618
333.3 K, 100 kPa, m1 = 0.782 | 0.64 | –
333.3 K, 10000 kPa, m1 = 0.782 | 0.645 | –
333.3 K, 30000 kPa, m1 = 0.782 | 0.655 | –
333.6 K, 100 kPa, m1 = 0.239 | 0.649 | –
333.6 K, 10000 kPa, m1 = 0.239 | 0.654 | –
333.6 K, 30000 kPa, m1 = 0.239 | 0.664 | –
333.7 K, 100 kPa, m1 = 0.499 | 0.645 | –
333.7 K, 10000 kPa, m1 = 0.499 | 0.65 | –
333.7 K, 30000 kPa, m1 = 0.499 | 0.66 | –
348.15 K, 0.1 kPa, m1 = 0.407 | – | 0.4271
348.15 K, 10 kPa, m1 = 0.407 | – | 0.4316
348.15 K, 20 kPa, m1 = 0.407 | – | 0.4354
348.15 K, 30 kPa, m1 = 0.407 | – | 0.438
348.25 K, 0.1 kPa, m1 = 0.305 | – | 0.4147
348.25 K, 10 kPa, m1 = 0.305 | – | 0.4182
348.25 K, 20 kPa, m1 = 0.305 | – | 0.4217
348.25 K, 30 kPa, m1 = 0.305 | – | 0.4248
348.45 K, 0.1 kPa, m1 = 0.0658 | – | 0.3842
348.45 K, 10 kPa, m1 = 0.0658 | – | 0.3869
348.45 K, 20 kPa, m1 = 0.0658 | – | 0.3912
348.45 K, 30 kPa, m1 = 0.0658 | – | 0.3963
348.95 K, 0.1 kPa, m1 = 0.2055 | – | 0.3988
348.95 K, 10 kPa, m1 = 0.2055 | – | 0.402
348.95 K, 20 kPa, m1 = 0.2055 | – | 0.4048
348.95 K, 30 kPa, m1 = 0.2055 | – | 0.4076
352.9 K, 100 kPa, m1 = 0.499 | 0.66 | –
352.9 K, 100 kPa, m1 = 0.782 | 0.654 | –
352.9 K, 10000 kPa, m1 = 0.499 | 0.665 | –
352.9 K, 10000 kPa, m1 = 0.782 | 0.659 | –
352.9 K, 30000 kPa, m1 = 0.499 | 0.675 | –
352.9 K, 30000 kPa, m1 = 0.782 | 0.67 | –
353.3 K, 100 kPa, m1 = 0.239 | 0.665 | –
353.3 K, 10000 kPa, m1 = 0.239 | 0.67 | –
353.3 K, 30000 kPa, m1 = 0.239 | 0.679 | –
363 K, 100 kPa, m1 = 0.499 | 0.666 | –
363 K, 10000 kPa, m1 = 0.499 | 0.671 | –
363 K, 30000 kPa, m1 = 0.499 | 0.68 | –
363.4 K, 100 kPa, m1 = 0.239 | 0.67 | –
363.4 K, 100 kPa, m1 = 0.782 | 0.66 | –
363.4 K, 10000 kPa, m1 = 0.239 | 0.675 | –
363.4 K, 10000 kPa, m1 = 0.782 | 0.665 | –
363.4 K, 30000 kPa, m1 = 0.239 | 0.685 | –
363.4 K, 30000 kPa, m1 = 0.782 | 0.675 | –
365.45 K, 10 kPa, m1 = 0.2055 | – | 0.3303
365.45 K, 20 kPa, m1 = 0.2055 | – | 0.3339
365.45 K, 30 kPa, m1 = 0.2055 | – | 0.3363
365.95 K, 10 kPa, m1 = 0.305 | – | 0.3396
365.95 K, 20 kPa, m1 = 0.305 | – | 0.3421
365.95 K, 30 kPa, m1 = 0.305 | – | 0.346
372.55 K, 10 kPa, m1 = 0.407 | – | 0.3265
372.55 K, 20 kPa, m1 = 0.407 | – | 0.33
372.55 K, 30 kPa, m1 = 0.407 | – | 0.3329
376.65 K, 10 kPa, m1 = 0.0658 | – | 0.2805
376.65 K, 20 kPa, m1 = 0.0658 | – | 0.2846
376.65 K, 30 kPa, m1 = 0.0658 | – | 0.2884
393.1 K, 10000 kPa, m1 = 0.499 | 0.679 | –
393.1 K, 10000 kPa, m1 = 0.782 | 0.672 | –
393.1 K, 30000 kPa, m1 = 0.499 | 0.69 | –
393.1 K, 30000 kPa, m1 = 0.782 | 0.685 | –
393.5 K, 10000 kPa, m1 = 0.239 | 0.684 | –
393.5 K, 30000 kPa, m1 = 0.239 | 0.695 | –
396.35 K, 10 kPa, m1 = 0.407 | – | 0.2605
396.35 K, 20 kPa, m1 = 0.407 | – | 0.2628
396.35 K, 30 kPa, m1 = 0.407 | – | 0.2667
396.65 K, 10 kPa, m1 = 0.2055 | – | 0.2435
396.65 K, 20 kPa, m1 = 0.2055 | – | 0.2464
396.65 K, 30 kPa, m1 = 0.2055 | – | 0.2492
397.25 K, 10 kPa, m1 = 0.305 | – | 0.2503
